# Patent EP1190034B1, “BLEACH ACTIVATOR BASED ON INULIN” (Coöperatie Cosun U.A., priority 1999, dated 2001)
# Columns and labels:
# [1] = Bleach activator test procedure (peracetic acid liberated, iodometric titration); settings: hydrogen peroxide, 30 °C, pH 11.6, 4 minutes, correction factor 1.10
# Procedure: The bleach activator property is determined on the basis of the quantity of peracetic acid that can be liberated from the product. […] The best characteristics are found when the acylation is carried out in water at controlled pH (Table 1).
# Mix the following solutions: • 15 ml 0.6% hydrogen peroxide solution • 10 ml saturated sodium pyrophosphate solution • 10 ml 0.05% EDTA solution. • Make up to 100 ml with demineralised water and heat to 30 °C. • Add the heated mixture to an accurately weighed amount (75 - 90 mg) of bleach activator in a 600 ml glass beaker. • Adjust the pH to 11.6 with 0.1 M NaOH solution. • Precisely 4 minutes after the first addition add 30 ml 0.1% catalase solution. • Adjust the pH to 10.5 with 0.5 M sulphuric acid solution and cool the solution to 0 - 3 °C. • Precisely 6 minutes after the first addition add 15 ml 100% acetic acid solution and 15 ml 10% potassium iodide solution. • Titrate the liberated iodine against a 0.1 M thiosulphate solution. The mol% peracetic acid liberated from the bleach activator can be calculated from the quantity of thiosulphate solution required, 2 mmol thiosulphate corresponding to 1 mmol peracetic acid formed. The determinations were corrected for the loss of peracetic acid during the measurement. The correction factor for this loss is 1.10.
# [2] = Solubility in water; assay type: physicochemical
structure (smiles),measurement,setting,value
"CC(=O)N(CCN(C(C)=O)C(C)=O)C(C)=O [TAED, tetraacetylethylenediamine]",Peracetate formed (mol%),[1]; 100 x number of mols of peracetate formed / total number of mols of acetyl groups in product,45 mol%
same,mol peracetate/ kg product,[1],7.9 mol peracetate/ kg product
same,Solubility (%),[2],0.1%
